# Experimental data reported in publication PMC9995496, “A screen for MeCP2-TBL1 interaction inhibitors using a luminescence-based assay” (Scientific Reports, 2023).
# Structures can show the parent of a compound that is named as a salt. Square brackets hold non-standard residues; d marks the D form. Peptide text beside a SMILES is read from it. * marks the point of attachment. Sta = CC(C)C[C@H](N)[C@@H](O)CC(=O)O; Isovaleryl = CC(C)CC(=O)*
# Tested on: PRKACA-PRKAR2A interaction (SmBiT-PRKACA / LgBiT-PRKAR2A), protein kinase A
# Design: NanoLuc complementation counter-screen in cell extract, PRKACA with PRKAR2A, loss of luminescence, detects NanoLuc interference
# Details: 0.5 h, 20 µM; inhibitor
row,SMILES,Inh (PKA)
1,"COC(=O)C1=CCCN(C)C1 [UM0053253:04, Arecoline hydrobromide]",-0.2973%
2,"CN(C)NC(=O)CCC(=O)O [UM0056235:02, Daminozide]",2.677%

# Same assay, conditions: counter-screen for NanoLuc interference, 0.5 h, 20 µM, inhibitor, Inh (PKA)
row,Inh (PKA),SMILES
1,5.073%,"O=C(O)Cc1ccccc1Nc1c(Cl)cccc1Cl [UM0118146:04, Diclofenac Sodium]"
2,0.7345%,"NCC1(CC(=O)O)CCCCC1 [UM0118203:03, Gabapentin]"

# Same assay, conditions: counter-screen for NanoLuc interference; 0.5 h, 20 µM; inhibitor
row,Inh (PKA),SMILES
1,1.801%,"CC1COC2(CCN(c3nc(=O)c4cc(C(F)(F)F)cc([N+](=O)[O-])c4s3)CC2)O1 (racemic) [UM0141871:01, BTZ043 Racemate]"
2,3.79%,"O[C@@H](CNC[C@H](O)[C@H]1CCc2cc(F)ccc2O1)[C@@H]1CCc2cc(F)ccc2O1 (racemic) [UM0142211:01, Nebivolol]"
3,43.9%,"O=C1NC(=O)C(=Cc2ccc(-c3ccc(F)cc3)o2)S1 (stereo in doubt) [UM0142434:01, CAY10505]"
4,9.078%,CN(C)Cc1cccc(N/C(=C2\C(=O)Nc3cc(C(=O)N(C)C)ccc32)c2ccccc2)c1 [BIX02189]
5,14.65%,"Oc1ccc(Nc2nc(-c3ccc(Cl)cc3)cs2)cc1 [UM0013692:02, SKI II]"
6,10.87%,"O=C(Oc1cc(S(=O)(=O)c2ccccc2)ccc1[N+](=O)[O-])c1ccc(Cl)cc1 [UM0041523:03, BTB06584]"
7,16.45%,"COc1cc2ncnc(Nc3cccc(Cl)c3)c2cc1OC [UM0044591:06, AG-1478]"
8,-0.07908%,"COc1ccc2[nH]c([S+]([O-])Cc3ncc(C)c(OC)c3C)nc2c1 (stereo not drawn) [UM0048901:05, Omeprazole]"
9,0.444%,"OC[C@@H](O)[C@@H](O)[C@@H](O)CO [UM0050273:04, Ribitol]"
10,-1.935%,"OC[C@@H](O)[C@H](O)[C@@H](O)CO [UM0050273:05, Xylitol]"
11,23.18%,"Oc1c2ccccc2c2c3c(cccc13)N=N2 [UM0051399:06, SP 600125]"
12,1.648%,"Cn1c(=O)c2c(ncn2CC(O)CO)n(C)c1=O (stereo not drawn) [UM0052188:04, Dyphylline]"
13,77.71%,"CC(C)(C)c1cc(C(=O)/C(C#N)=N/Nc2cccc(Cl)c2)no1 [UM0055456:02, ESI-09]"
14,7.48%,"O=C(O)CCc1nc(-c2ccccc2)c(-c2ccccc2)o1 [UM0056108:04, Oxaprozin]"
15,10.75%,"CCOC(=O)c1ccc(NC2CCCCC2)c(N)c1 [UM0065946:02, Ferrostatin-1 (Fer-1)]"
16,12.95%,"CC(=O)Nc1ccc(NC(=S)NC(=O)c2ccc(C(C)(C)C)cc2)cc1 [UM0075879:02, Tenovin-1]"
17,2.953%,"CCN(CC)CCOC(=O)C(c1ccccc1)c1ccccc1 [UM0118069:03, Adiphenine HCl]"
18,17.63%,"COc1ccc(C(Cl)=C(c2ccc(OC)cc2)c2ccc(OC)cc2)cc1 [UM0118083:03, Chlorotrianisene]"
19,24.16%,"CCCCC(CC)CNC(=N)NC(=N)NCCCCCCNC(=N)NC(=N)NCC(CC)CCCC (stereo not drawn) [UM0118099:03, Alexidine dihydrochloride]"
20,15.72%,"CN(C)CCCN1c2ccccc2Sc2ccc(Cl)cc21 [UM0118114:03, Chlorpromazine HCl]"

row,Inh (PKA),SMILES
1,16.35%,"Cc1oncc1C(=O)Nc1ccc(C(F)(F)F)cc1 [UM0118141:03, Leflunomide]"
2,0.6753%,"Cn1c(=O)c2[nH]cnc2n(C)c1=O [UM0118147:03, Aminophylline]"
3,14.84%,"C=C(C)[C@@H]1CC[C@]2(C(=O)O)CC[C@]3(C)[C@H](CC[C@@H]4[C@@]5(C)CC[C@H](O)C(C)(C)[C@@H]5CC[C@]43C)[C@@H]12 [UM0118149:03, Betulinic acid]"
4,5.226%,"C[C@H](CS)C(=O)N1CCC[C@H]1C(=O)O [UM0118157:03, Captopril]"
5,14.38%,"CCCC(C(=O)OCCN(CC)CC)(c1ccccc1)c1ccccc1 [UM0118177:04, SKF 525A (hydrochloride)]"
6,27.31%,"OCCN(CCO)c1nc(N2CCCCC2)c2nc(N(CCO)CCO)nc(N3CCCCC3)c2n1 [UM0118197:03, Dipyridamole]"
7,21.36%,"CCN(CC)C(=S)SSC(=S)N(CC)CC [UM0118234:04, Disulfiram]"
8,16.36%,"CC(C)C(=O)Nc1ccc([N+](=O)[O-])c(C(F)(F)F)c1 [UM0118278:03, Flutamide]"
9,3.952%,"CN(C)CCCN1c2ccccc2CCc2ccccc21 [UM0118324:03, Imipramine (hydrochloride)]"
10,8.731%,"COC(=O)Nc1nc2cc(C(=O)c3ccccc3)ccc2[nH]1 [UM0118348:03, Mebendazole]"
11,-1.159%,"COc1ccc2[nH]cc(CCNC(C)=O)c2c1 [UM0118349:03, Melatonin]"
12,4.028%,"CNCCC=C1c2ccccc2CCc2ccccc21 [UM0118370:03, Nortriptyline (hydrochloride)]"
13,-0.007894%,"C#CCN(C)Cc1ccccc1 [UM0118374:03, Pargyline (hydrochloride)]"
14,11.2%,"O=c1[nH]c2ccccc2n1C1CCN(CCCC(c2ccc(F)cc2)c2ccc(F)cc2)CC1 [UM0118378:03, Pimozide]"
15,-1.554%,"Cc1ncc(C[n+]2csc(CCO)c2C)c(N)n1 [UM0118406:03, Thiamine HCl (Vitamin B1)]"
16,2.527%,"Nc1ccc(S(=O)(=O)Nc2ccnn2-c2ccccc2)cc1 [UM0118414:03, Sulfaphenazole]"
17,1.702%,"Nc1nc(N)c2nc(-c3ccccc3)c(N)nc2n1 [UM0118431:03, Triamterene]"
18,8.71%,"CN1CCN(CCCN2c3ccccc3Sc3ccc(C(F)(F)F)cc32)CC1 [UM0118432:03, Trifluoperazine 2HCl]"
19,23.02%,"Clc1ccccc1CN1CCc2sccc2C1 [UM0118440:03, Ticlopidine HCl]"
20,0.5127%,"CCc1nc(N)nc(N)c1-c1ccc(Cl)cc1 [UM0118442:03, Pyrimethamine]"

row,Inh (PKA),SMILES
1,19.56%,"Cc1cccc(Nc2ccccc2C(=O)O)c1C [UM0118444:03, Mefenamic Acid]"
2,11.82%,"CN1CCN2c3ccccc3Cc3ccccc3C2C1 (stereo not drawn) [UM0118451:03, Mianserin HCl]"
3,-0.1303%,"C[N+]1(C)CCC(=C(c2ccccc2)c2ccccc2)CC1 [UM0118457:03, Diphemanil Methylsulfate]"
4,5.004%,"COc1ccc2c(c1)c(CC(=O)O)c(C)n2C(=O)c1ccc(Cl)cc1 [UM0118515:03, Indomethacin]"
5,82.23%,"CS(=O)(=O)Nc1ccc([N+](=O)[O-])cc1Oc1ccccc1 [UM0118531:03, Nimesulide]"
6,1.558%,"CCCCOc1ccc(CC(=O)NO)cc1 [UM0118579:03, Bufexamac]"
7,2.877%,"CCCCNc1cc(C(=O)O)cc(S(N)(=O)=O)c1Oc1ccccc1 [UM0118581:03, Bumetanide]"
8,1.204%,"CC(C)CC(=O)N[C@H](C(=O)N[C@H](C(=O)N[C@@H](CC(C)C)[C@@H](O)CC(=O)N[C@@H](C)C(=O)N[C@@H](CC(C)C)[C@@H](O)CC(=O)O)C(C)C)C(C)C [UM0118622:03, Pepstatin A] (Isovaleryl-VV[Sta]A[Sta]-OH)"
9,-0.4014%,"C[C@](N)(Cc1ccc(O)c(O)c1)C(=O)O [UM0118624:04, Methyldopa]"
10,1.154%,"Nc1c2c(nc3ccccc13)CCCC2 [UM0118625:03, Tacrine hydrochloride]"
11,10.49%,"C#CCN(C)CCCOc1ccc(Cl)cc1Cl [UM0118650:03, Clorgyline (hydrochloride)]"
12,42.12%,"COc1cccc2c1C(=O)c1c(O)c3c(c(O)c1C2=O)C[C@@](O)(C(C)=O)C[C@@H]3O[C@H]1C[C@H](N)[C@H](O)[C@H](C)O1 [UM0118677:04, Daunorubicin HCl]"
13,5.529%,"CNCCC(Oc1ccc(C(F)(F)F)cc1)c1ccccc1 (stereo not drawn) [UM0118682:03, Fluoxetine HCl]"
14,6.12%,"CC(=O)Oc1cc(C(F)(F)F)ccc1C(=O)O [UM0118728:03, Triflusal]"
15,-0.09679%,"CCCc1ncc(C[n+]2ccccc2C)c(N)n1 [UM0118750:03, Amprolium HCl]"
16,1.197%,"Cc1cc2c(cc1S(N)(=O)=O)S(=O)(=O)CCC2 [UM0118751:03, Meticrane]"
17,2.176%,"COc1cc2nc(N3CCN(C(=O)C4COc5ccccc5O4)CC3)nc(N)c2cc1OC (stereo not drawn) [UM0118850:03, Doxazosin Mesylate]"
18,-0.9742%,"NS(=O)(=O)c1cc(Cl)c(Cl)c(S(N)(=O)=O)c1 [UM0118893:03, Dichlorphenamide]"

row,SMILES,Inh (PKA)
1,"Fc1cc(F)c2c(c1)[C@H]1C=CC[C@H]1C(c1cccnc1)N2 (mixture of isomers) [UM0142231:01, Golgicide A]",20.05%
2,"CC(=O)N1CCN(c2ccc(OC[C@@H]3CO[C@@](Cn4ccnc4)(c4ccc(Cl)cc4Cl)O3)cc2)CC1 (racemic) [UM0118636:05, Ketoconazole]",5.554%
3,"O=C(O)c1ccccc1O [UM0038620:02, Salicylic acid]",0.4961%
4,"CN(C)CCC=C1c2ccccc2CCc2ccccc21 [UM0118081:03, Amitriptyline HCl]",6.05%
5,"CC[N+](C)(C)c1cccc(O)c1 [UM0118243:03, Edrophonium (chloride)]",-0.559%
6,"CC[N+](CC)(CC)CCOc1cccc(OCC[N+](CC)(CC)CC)c1OCC[N+](CC)(CC)CC [UM0118287:03, Gallamine Triethiodide]",0.3342%
7,"COc1ccc2c(c1)[nH]c1c(C)nccc12 [UM0118303:03, Harmine hydrochloride]",2.69%
8,"COC(=O)Nc1nc2cc(C(=O)c3cccs3)ccc2[nH]1 [UM0118368:03, Nocodazole]",9.707%
9,"C1CCc2nnnn2CC1 [UM0118375:03, Pentylenetetrazole]",-0.7973%
10,"Cc1cc2c(C(C)C)c(O)c(O)c(C=O)c2c(O)c1-c1c(C)cc2c(C(C)C)c(O)c(O)c(C=O)c2c1O [UM0118855:03, Gossypol]",56.08%
